Data reported in patent US20190077840A1, “SELECTIVE MCL-1 BINDING PEPTIDES” (MASSACHUSETTS INSTITUTE OF TECHNOLOGY, priority 2015, published 2019).
Numbered stars: 1 amine (or outer) side, 2 acyl side, 3 side chain; on linkers, the order of the positions; unused ones are H or OH. Bridge positions count the residues as written; N and C are the ends. Square brackets hold non-standard residues; d marks the D form. Peptide text beside a SMILES is read from it. ξ: configuration not given here. ξαMeNle(6-ylidene) = CC(CCCC=[*:3])(N[*:1])C(=O)[*:2]; Cha = N[C@@H](CC1CCCCC1)C(=O)O; Nle = CCCC[C@H](N)C(=O)O; Aib = CC(C)(N)C(=O)O

Tests used:
chymotrypsin = assay: Protease resistance: HPLC half-lives of peptides exposed to chymotrypsin
Mcl-1/Myc 2640 = assay type: cell-based, murine
Excerpt: (§1) A whole-cell BH3 profiling experiment quantifies the dependence of cancer cell mitochondrial integrity on specific anti-apoptotic proteins and can be predictive of cellular responses to chemotherapy (Ryan, J. A.; Brunelle, J. K.; Letai, A. Proc. Natl. Acad. Sci. 2010, 107 (29), 12895 and Ryan, J. A; Letai, A. Methods 2013, 61(2), 156). In this assay, permeabilized cells are stained with dye JC1 to monitor mitochondrial membrane integrity in response to increasing doses of BH3 peptides. We used this assay to test the specificity of our Mcl-1-binding stapled peptides in cell lines with different established dependencies on Bcl-xL and Mcl-1. Mcl-1/Myc 2640 is an engineered murine leukemia cell line overexpressing murine Mcl-1 and Myc, and MDA-MB 231 is a human breast cancer cell line with a primed Bcl-xL-dependent pro-file (Brunelle, J. K.; Ryan, J.; Yecies, D.; Opferman, J. T.; Letai, A. J Cell Biol. 2009, 187 (3), 429 and Ryan, J. A.; Brunelle, J. K.; Letai, A. Proc. Natl. Acad. Sci. 2010, 107 (29), 12895). By BH3 profiling using native BH3 peptides from BAD and NOXAA, we confirmed cell line dependencies on these anti-apoptotic proteins (FIG. 3). […] Mcl-1 2640 cell line is dependent on Mcl-1 whereas MDA-MB-231 is dependent on Bcl-xL, as indicated by response to NoxA and Bad, respectively. […]

MDA-MB 231 = assay type: cell-based, human
Excerpt: as §1

[1] = Circular dichroism spectroscopy (helicity); assay type: physicochemical; conditions: more helical than MS1
Description: (§2) The standard errors reported are over three experiments.
The secondary structure of selected stapled peptides was assessed by circular dichroism (CD) spectroscopy (FIG. 1(c)). […] Therefore, the increases in helicity can be attributed to both helix-inducing substitutions: Aib at 2e and Cha at 3a (Armstrong, K. M.; Fairman, R.; Baldwin, R. L. J. Mol Biol. 1993, 230 (1), 284. and Venkatraman, J.; Shankaramma, S. C.; Balaram, P. Chem. Rev. 2001, 101 (10), 3131).

Mcl-1 = Mcl-1 (Homo sapiens, UniProt Q07820); assay: Competition fluorescence polarization/anisotropy assay with fluoresceinated Bim BH3 peptide for binding to Mcl-1
Excerpt: as §2
Position 2e is usually conserved as small (alanine, glycine, serine) in natural BH3 sequences.

Bax/Bak deficient cells = assay: Whole-cell BH3 profiling in Bax/Bak deficient cells (BBDL); assay type: cell-based; conditions: Bax/Bak independent activity indicates non-specific toxicity

Chain of Mcl-1 (Q07820 whole entry): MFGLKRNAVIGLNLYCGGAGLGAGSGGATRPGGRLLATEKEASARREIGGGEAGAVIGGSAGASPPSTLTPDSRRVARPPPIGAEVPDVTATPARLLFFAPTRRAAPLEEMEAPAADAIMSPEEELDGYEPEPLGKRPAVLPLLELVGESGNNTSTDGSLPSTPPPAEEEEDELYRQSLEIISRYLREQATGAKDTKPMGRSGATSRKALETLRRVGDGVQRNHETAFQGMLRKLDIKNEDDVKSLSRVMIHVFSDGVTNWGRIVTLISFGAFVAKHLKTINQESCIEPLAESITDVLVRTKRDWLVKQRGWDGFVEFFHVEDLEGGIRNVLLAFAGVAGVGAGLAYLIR

| half-lives (protease resistance) compared to M1d (chymotrypsin) | EC50 (Mcl-1/Myc 2640) [nM] | EC50 (MDA-MB 231) [nM] | Mcl-1-binding affinity in comparison to MS1 (Mcl-1) | Compound | helicity in solution relative to MS1 [1] [fold] | activity in Bax/Bak deficient cells (Bax/Bak deficient cells) |
| --- | --- | --- | --- | --- | --- | --- |
| longer half-lives |  |  |  | CCCC[C@H](NC(=O)[C@H](Cc1c[nH]c2ccccc12)NC(=O)[C@@H](N)[C@@H](C)CC)C(=O)NC(C)(C)C(=O)N[C@@H](CCC(N)=O)C(=O)NCC(=O)N[C@@H](CC(C)C)C(=O)N[C@@H](CCCNC(=N)N)C(=O)N[C@@H](CCCNC(=N)N)C(=O)N[C@@H](CC(C)C)C(=O)NCC(=O)N[C@@H](CC(=O)O)C(=O)N[C@@H](CCC(=O)O)C(=O)N[C@H](C(=O)NC1(C)CCCC=CCCCC(C)(C(=O)N[C@@H](CCCNC(=N)N)C(=O)N[C@@H](CCCNC(=N)N)C(N)=O)NC(=O)[C@H](Cc2ccc(O)cc2)NC(=O)[C@H](Cc2ccc(O)cc2)NC(=O)[C@H](C)NC1=O)[C@@H](C)CC (stereo partly shown) [M2d, IWBAibQGLRRLGDEIXAYYXRR] (H-IW[Nle][Aib]QGLRRLGDEI[ξαMeNle(6-ylidene)]AYY[ξαMeNle(6-ylidene)]RR-NH2; staple 15-19) |  |  |
| longer half-lives | 30 | > 5000 |  | CCCC[C@H](NC(=O)[C@H](Cc1c[nH]c2ccccc12)NC(=O)[C@@H](N)[C@@H](C)CC)C(=O)NC(C)(C)C(=O)N[C@@H](CCC(N)=O)C(=O)NCC(=O)N[C@@H](CC1CCCCC1)C(=O)N[C@@H](CCCNC(=N)N)C(=O)N[C@@H](CCCNC(=N)N)C(=O)N[C@@H](CC(C)C)C(=O)NCC(=O)N[C@@H](CC(=O)O)C(=O)N[C@@H](CCC(=O)O)C(=O)N[C@H](C(=O)NC1(C)CCCC=CCCCC(C)(C(=O)N[C@@H](CCCNC(=N)N)C(=O)N[C@@H](CCCNC(=N)N)C(N)=O)NC(=O)[C@H](Cc2ccc(O)cc2)NC(=O)[C@H](Cc2ccc(O)cc2)NC(=O)[C@H](C)NC1=O)[C@@H](C)CC (stereo partly shown) [M3d, IWBAibQGChaRRLGDEIXAYYXRR] (H-IW[Nle][Aib]QG[Cha]RRLGDEI[ξαMeNle(6-ylidene)]AYY[ξαMeNle(6-ylidene)]RR-NH2; staple 15-19) |  |  |
|  |  |  | improved | IWBTQGLRRLGDEIXAYYXRR [M1d] | ~3 | Bax/Bak independent activity |
